In PMC6277198, “Molecular basis for activation of lecithin:cholesterol acyltransferase by a compound that increases HDL cholesterol” (eLife, 2018):
Residue numbers refer to the chain shown, from its start. Entries after “also recorded” stand apart in the source; their conditions may differ.

Tests used:
[1] = target: T1, WT LCAT (Homo sapiens, UniProt P04180); assay: Bio-layer interferometry, LCAT binding to ApoA-I HDLs; conditions: 10 μM compound 1
T1 sequence (P04180 25-440): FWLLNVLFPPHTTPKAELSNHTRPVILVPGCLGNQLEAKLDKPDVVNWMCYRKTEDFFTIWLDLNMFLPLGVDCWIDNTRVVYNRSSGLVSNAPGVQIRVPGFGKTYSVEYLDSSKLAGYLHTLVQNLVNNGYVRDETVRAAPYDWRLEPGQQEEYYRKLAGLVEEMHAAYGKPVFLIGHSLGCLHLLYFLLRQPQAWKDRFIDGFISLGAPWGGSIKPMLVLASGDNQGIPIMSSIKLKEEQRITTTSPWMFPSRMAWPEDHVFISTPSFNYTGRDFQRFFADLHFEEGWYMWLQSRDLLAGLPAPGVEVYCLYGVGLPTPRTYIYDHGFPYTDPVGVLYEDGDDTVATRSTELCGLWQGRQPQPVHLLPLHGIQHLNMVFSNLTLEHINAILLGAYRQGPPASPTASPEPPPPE
Method: A FortéBio Octet RED system was used to measure the binding of LCAT to ApoA-I HDLs. HDLs were prepared with 1,2-dipalmitoyl-sn-glycero-3-phosphocholine (DPPC), 1-palmitoyl-2-oleoyl-sn-glycero-3-phosphocholine (POPC), and 16:0 biotinyl Cap PE in a ratio of 49.5:49.5:1 ([Manthei et al., 2017]). HDLs were diluted 1/20 in assay buffer (1X PBS pH 7.4, 1 mM EDTA, 60 µM fatty acid free bovine serum albumin) and then immobilized on streptavidin tips for 600 s, followed by a wash in assay buffer for 600 s to remove unbound HDLs. The tips were then moved to buffer containing DMSO or compound 1 and allowed to equilibrate for 120 s before a baseline was established for 30 s. […] In order to determine Kd values, the kobs (from association) were determined at each concentration for the fast phase and then plotted against LCAT concentration. The slope of the line was evaluated as kon using the equation kobs = kon[LCAT]+koff and the resultant Kd = koff/kon. For statistical analysis, the kon, koff, and Kd for each replicate was determined individually and the results were compared to WT using a one-way analysis of variance followed by Tukey’s multiple comparisons post-test in GraphPad Prism.

[2] = target: T2, LCAT R244A (Homo sapiens, UniProt P04180, R268A); assay: Differential scanning fluorimetry; format: binding; conditions: addition of compound 1
T2 construct: hydrolysis of 4-methylumbelliferyl palmitate (MUP) by full-length LCAT; made in house; host or cells: HEK293F (transient transfection, secreted)
T2 sequence (P04180 25-440 R268A): T1 sequence (P04180 25-440) with R244A
Method: Tm values were determined using an Applied Biosystems QuantStudio 7 Flex qPCR machine with two replicates performed at least in triplicate. LCAT at 0.05 mg mL^−1 was diluted into reaction buffer containing 5X Sypro Orange in a final volume of 10 μL in 384-well PCR plates. DMSO or compound 1 was added so that all reactions contained 3% DMSO. The reactions were run from 25–95 °C with a ramp rate of 0.03 °C s^−1. Tm values were determined as the derivative using Protein Thermal Shift software. Significance was determined using a one-way analysis of variance followed by Tukey’s multiple comparisons post-test in GraphPad Prism.

N#Cc1cnc(N2CCC(c3n[nH]c4c3C(O)(C(F)(F)F)CC(=O)N4)CC2)cc1C(F)(F)F (centres unmarked) [compound 1, 6-(4-(4-Hydroxy-6-oxo-4-(trifluoromethyl)−4,5,6,7-tetrahydro-1H-pyrazolo[3,4-b]pyridin-3-yl)piperidin-1-yl)−4-(trifluoromethyl)nicotinonitrile]
Effect on LCAT binding to HDL (kon, koff, Kd) in BLI [1]: does not affect; also recorded: no change
∆Tm [2]: 6.0 ˚C
